Measurements reported in US20120107246A1, “METHOTREXATE-MODIFIED NANOPARTICLES AND RELATED METHODS” (WASHINGTON, UNIVERSITY OF, priority 2005, published 2012).

Assays:
9L cells = assay: leucovorin rescue of 9L cells exposed to free methotrexate; assay type: cell-based, rat
Text: Methotrexate induces apoptosis in cells through inhibition of the folic acid cycle by acting on the enzyme, dihydrofolate reductase (DHFR). The substitution of a […] at position four of the pteridine ring transforms the molecule from a substrate of DHFR to a tight binder. […] Leucovorin (folinic acid) is commonly used in high dose chemotherapy to rescue the folic acid cycle in healthy cells and reduce the deleterious side effect of the therapy. Leucovorin rescues the cell cycle by being actively metabolized into reduced folates, increasing the intracellular concentration of the reduced folates within the cytoplasm. […] Previous studies used leucovorin to rescue MCF-7 and HeLa cells following exposure to free methotrexate, but no studies have been reported in using leucovorin for the 9L cell line. Thus, the first step in this study was to determine whether the 9L cells would respond to leucovorin induced rescue following the cellular exposure to free methotrexate.

[1] = in humans; cited from earlier work
HeLa cells = assay: cell viability (surviving fraction) by cell count; conditions: up to 120 hours in culture, nanoparticles 0.01-0.1 mg/mL iron, soluble methotrexate 2 μg/mL
Method: Human breast cancer cells (MCF-7), and human cervical cancer cells (HeLa) were obtained from the Fred Hutchinson Cancer Research Center, Seattle, Wash. Cells were grown in T-75 flasks with RPMI Media (Invitrogen) supplemented with 10% fetal calf serum, 5958 mg/mL HEPES, 300 mg/mL L-Glutamine, 50 ug/mL streptomycin and 50 IU/mL penicillin. Cells were cultured at 37° C. in a humidified atmosphere with 5% CO2 with the medium being changed every third day. The cells were transferred to RPMI-1640 folate free medium (Invitrogen) 24 hours prior to plating. The cells were then subcultured in 24-well plates at a concentration of 25,000 cells/mL in RPMI-1640 folate-free medium. […] In addition, a control media containing soluble methotrexate was prepared at a concentration of 2 μg/mL. Cells were also cultured in 1 mL medium without nanoparticles as the control. The cell culture proceeded for 24, 48, 72, 96, and 120 hours respectively at which time, the cells were washed three times with 1 mL of Hank's Balanced Salt Solution (HBSS, Invitrogen), detached with 500 μL of 0.25% trypsin-EDTA (Sigma), and resuspended in 1 mL of Phosphate Buffered Saline (PBS) supplemented with 10% FBS. Cell viability was determined by cell count via a model Z1 Beckman particle counter.

| SMILES | leucovorin concentration at which cells showed continued proliferation (9L cells; 9L cells after 2 hours exposure to methotrexate, 48 hours incubation with LV) | sufficient concentration of LV to ensure cell rescue (9L cells; 9L cells after methotrexate exposure) | half-life [1] | reduction in cell viability / cytotoxicity (HeLa cells) |
| --- | --- | --- | --- | --- |
| Nc1nc2c(c(=O)[nH]1)N(C=O)C(CNc1ccc(C(=O)N[C@@H](CCC(=O)O)C(=O)O)cc1)CN2 (stereo partly shown) [leucovorin, Leucovorin (folinic acid)] | ≥ 1 µg/mL | ~10 µg/mL |  |  |
| CN(Cc1cnc2nc(N)nc(N)c2n1)c1ccc(C(=O)N[C@@H](CCC(=O)O)C(=O)O)cc1 [methotrexate, Methotrexate] |  |  | 2 to 3 h | slightly higher cytotoxicity |
